Literature values, collected in patent US20200368373A1, “OPTICAL IMAGING AGENTS TARGETING INFLAMMATION” (SORBONNE UNIVERSITE, priority 2018, published 2020).

Biological target: T1, selectin E (Mus musculus, UniProt Q00690)
T1 sequence (Q00690 22-612): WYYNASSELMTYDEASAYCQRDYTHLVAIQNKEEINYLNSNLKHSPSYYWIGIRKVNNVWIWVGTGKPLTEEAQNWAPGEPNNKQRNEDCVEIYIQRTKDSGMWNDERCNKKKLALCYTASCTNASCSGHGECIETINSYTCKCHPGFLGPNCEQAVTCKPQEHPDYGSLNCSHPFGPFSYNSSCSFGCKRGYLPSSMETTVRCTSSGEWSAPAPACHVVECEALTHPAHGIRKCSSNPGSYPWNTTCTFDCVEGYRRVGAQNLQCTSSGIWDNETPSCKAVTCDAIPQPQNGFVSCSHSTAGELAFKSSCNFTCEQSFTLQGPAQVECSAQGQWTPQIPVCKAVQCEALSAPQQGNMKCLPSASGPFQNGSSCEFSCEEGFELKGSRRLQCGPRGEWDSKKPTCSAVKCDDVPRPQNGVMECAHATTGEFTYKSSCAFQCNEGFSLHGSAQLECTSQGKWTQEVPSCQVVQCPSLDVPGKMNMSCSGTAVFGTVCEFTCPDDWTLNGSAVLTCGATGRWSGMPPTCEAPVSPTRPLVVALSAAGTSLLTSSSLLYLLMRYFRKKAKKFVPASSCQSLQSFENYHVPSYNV
Conditions: known in the art

## Sialyl Lewis X
  affinity for selectin E: high affinity
